Results taken from US12064444B2, “Application of tannic acid in preparation of medicament against respiratory viruses” (priority 2020, dated 2024).

System: SARS-CoV-2 virus

Compound: CCC(CC)COC(=O)[C@H](C)N[P@](=O)(OC[C@H]1O[C@@](C#N)(c2ccc3c(N)ncnn23)[C@H](O)[C@@H]1O)Oc1ccccc1 [Remdesivir]
- SI (Selection Index = TC50/IC50): 162.21

Compound: O=C(OC[C@H]1O[C@@H](OC(=O)c2cc(O)c(O)c(OC(=O)c3cc(O)c(O)c(O)c3)c2)[C@H](OC(=O)c2cc(O)c(O)c(OC(=O)c3cc(O)c(O)c(O)c3)c2)[C@@H](OC(=O)c2cc(O)c(O)c(OC(=O)c3cc(O)c(O)c(O)c3)c2)[C@@H]1OC(=O)c1cc(O)c(O)c(OC(=O)c2cc(O)c(O)c(O)c2)c1)c1cc(O)c(O)c(OC(=O)c2cc(O)c(O)c(O)c2)c1 [Tannic acid, tannic acid]
- SI (Selection Index = TC50/IC50): 7343.75
